Several values for one entry are separate records, joined by “and”; a condition that tells them apart may be missing. Identical values can stand only once.
Experiments:
[1] = test system: IL-1β; experiment: Ex vivo LPS-stimulated IL-1β in blood of dosed healthy subjects, PK/PD inhibitory Emax model; parameters: species or system human
Method: Blood samples of 10 mL were collected for PD analysis. For the SAD cohorts, blood was collected before dosing and 1, 12, and 24 hours after dosing. For the MAD cohorts, on day 1 blood was collected before the morning dose and 4 and 12 hours after the morning dose (prior to the evening dose); on day 7, blood was collected before the morning dose and 4 and 12 hours after the morning dose.
Additional details of the assays for analyzing p-HSP27 and cytokines are included in the Supplementary Information.
Pharmacodynamics. PD data analysis was conducted using Microsoft Excel 2010 (Microsoft, Redmond, WA), Meso Scale Discovery Workbench® analysis software (Rockville, MD), and Phoenix WinNonlin, version 8.2.
Sample Preparation for Cytokine Analysis. For each sample, 180 μL aliquots were transferred into 7 wells of a round bottom 96 well tissue culture polystyrene low evaporation plate. […] No outer wells on the plates were used and all wells surrounding the samples contained 200 μL of phosphate buffered saline.
DMSO was added to all wells in groups ‘A’ and ‘C’ to a final concentration of 0.1% ([…] of a 2% DMSO solution in DMEM containing 10% FBS and 1% penicillin/streptomycin/glutamine). […] Samples were mixed gently for 30 seconds on a plate shaker using pin tools, then placed in an incubator at 37° C./5% CO2 for 1 hour.
Samples in groups ‘A’ and ‘B’ were stimulated with lipopolysaccharide at a final concentration of 100 ng/mL. A stock solution of lipopolysaccharide at 1 mg/mL in DMEM containing 10% FBS and 1% penicillin/streptomycin was diluted to […] in DMEM containing 10% FBS and 1% penicillin/streptomycin, and […] of this working solution was added per well of blood for all samples in groups ‘A’ and ‘B’. […] of DMEM containing 10% FBS only was added per well of blood for all samples in group ‘C’ (unstimulated samples). Samples were mixed gently for 30 seconds on a plate shaker using pin tools, then placed in an incubator at 37° C./5% CO2 for 5 hours.
Following the incubation, the plates were removed from the incubator and sealed with adhesive clear plate seals. The plates were then centrifuged for 10 minutes at 1800×g at room temperature. […] of plasma was removed from each well and transferred to a 96-well polypropylene round bottom master plate, which was then sealed and frozen at −80° C. until all samples from the respective cohort were generated. Once all samples from a given cohort were generated, the samples were analyzed for cytokine (TNF-α, IL-1b, IL-6, and IL-8) production using Meso Scale Discovery Technology.
Analysis of Cytokine Levels Using Meso Scale Discovery Technology. All lipopolysaccharide plasma samples were analyzed for cytokine production with a V-Plex Human Proinflammatory Panel II (4-Plex) Kit from Meso Scale Discovery (Rockville, MD). The master plates containing the plasma samples were thawed on ice, and a daughter plate consisting of a 25-fold dilution of each plasma sample (3 μL of plasma plus 72 μL of Meso Scale Discovery Diluent 2) was generated for each master plate. The diluted plasma samples from the daughter plates were used in the cytokine analysis. The Meso Scale Discovery 4-plex plates were washed 3 times with 150 μL/well of wash buffer (1×KPL phosphate buffered saline with Tween 20 from SeraCare [Milford, MA]). Prepared calibrators and the samples from the daughter plates were added to the washed Meso Scale Discovery 4-plex plates at 50 μL/well. The 4-plex plates were sealed and shaken overnight at 4° C.
After the overnight incubation, the samples were removed by decanting. The 4-plex plates were then washed 3 times with 150 μL/well of wash buffer. […]

[2] = test system: IL-6; experiment: A549 IL-1β stimulated IL-6 assay; assay type: cell-based; conditions: Homo sapiens, A549 cells, 1 ng/mL, 18 hr
Method: A549 IL-1β stimulated IL-6 Assay—A549 cells (American Type Culture Collection, […]) were grown in Ham's F-12K (Kaighn's) (Gibco, 21127-022) with penicillin-streptomycin (10 U/mL) (Gibco, 15140-122) and 10% fetal bovine serum (Gibco, 26140-079). Cells were grown to 80% confluence then trypsinized to remove cells. Cells were plated in 96 well flat bottom plates in complete media and allowed to recover overnight. Cells were pretreated for one hour in the presence of serially diluted compound or vehicle (0.5% DMSO) (Sigma-Aldrich, D2650) then stimulated with IL-1β (1 ng/mL) (R&D Systems, 201-LB-005) for 18 hours. Culture media was then collected for determination of IL-6 levels using Meso Scale Technology.

[3] = test system: IL-1α; experiment: Human PBMC LPS stimulated IL-1α biosynthesis; assay type: cell-based; conditions: hPBMC, 100 ng/mL, 24 hr
[4] = test system: TNF-α; experiment: Rat whole blood LPS stimulated TNF-α; assay type: cell-based; conditions: 100 ng/mL, 4 hr
[5] = Phase 1 SAD/MAD safety and tolerability in healthy subjects (incl. 80/120 mg BID extension)
Method: Single ascending dose (SAD) cohorts.
Multiple ascending dose (MAD) cohorts. […] Subjects were admitted to the clinical facility on day −1 and remained at the site until 72 hours after the morning dose on day 7.
Safety and Tolerability Assessments. Adverse events, clinical laboratory tests, vital signs, an electrocardiogram, Holter monitoring, and physical examination results were evaluated for each subject in both parts of the study.
Methods: Safety, pharmacokinetics (PK) and pharmacodynamics (PD) were assessed in two cohorts of subjects in a randomized, observer-blind, placebo-controlled study in male and female healthy subjects aged 18-55 (n=77). The study consisted of twenty (20) subjects enrolled into 2 cohorts. […] The final dose was administered in the morning on Day 7. Blood samples were obtained Day 1—before dosing, Day 1—4 hours after dosing and Day 1—12 hours after dosing and Day 7—before dosing, Day 7—4 hours after dosing, day 7—12 hour after dosing and Day 7—24 hours after dosing for each subject.

[6] = all ATI-450 SAD and MAD cohorts, 3/48
[7] = all ATI-450 SAD and MAD cohorts, n = 48

Cc1cnc(-c2ccnc(C(C)(C)O)n2)cc1-n1c(C)cc(OCc2ncc(F)cc2F)c(Cl)c1=O (single isomer, unassigned) [ATI-450, 3-chloro-4-((3,5-difluoropyridin-2-yl)methoxy)-2′-(2-(2-hydroxypropan-2-yl)pyrimidin-4-yl)-5′,6-dimethyl-2H-[1,4′-bipyridin]-2-one]
IL-1β inhibition versus baseline ([1]; 50 mg BID MAD cohort): ≤ 83.0% | Cmax (Multiple of IC80) ([1]; 50 mg BID, day 7): 5.4x | Ctrough (Multiple of IC80) ([1]; 50 mg BID, day 7): 2.2x | IC80 ([1]; Homo sapiens, calculated from IC50, combined SAD and MAD data, read-out: IC80, plasma concentration at 80% of maximal inhibition): 0.0408 µg/mL | IC50 ([1]; Homo sapiens, inhibitory Emax model, combined SAD and MAD data, read-out: IC50, plasma concentration at half maximal inhibition): 0.0102 µg/mL | IC80, plasma concentration at 80% of maximal inhibition ([1]; calculated from IC50, combined SAD and MAD data): 0.0408 µg/mL | Imax, maximum percent inhibition ([1]; inhibitory Emax model): 74% and 74.3% | IC50 [2]: 11.1 ± 7.6 nM | IC50 [3]: 31.1 nM | IC50 [4]: 14.3 ± 1.9 nM | subjects with TEAEs considered related to the study drug ([5]; 10 mg BID cohort, 1 of 8): 13% | subjects with TEAEs considered related to the study drug ([5]; 30 mg BID cohort, 5 of 8): 63% | subjects with TEAEs considered related to the study drug ([5]; 50 mg BID cohort, 3 of 8): 38% | neutrophils ([5]; 50 mg BID, day 7 (baseline 3318.4 cells/μL)): 2514.4 cells/μL | mean reduction in neutrophils ([5]; 50 mg BID, day 7 vs baseline): 24% | Constipation, AE, n (%) ([5]; 80 mg BID, 7 days, n = 8): 1 (14%) | Dizziness, AE, n (%) ([5]; 80 mg BID, 7 days, n = 8): 2 (25%) | Headache, AE, n (%) ([5]; 80 mg BID, 7 days, n = 8): 2 (25%) | Xerosis, AE, n (%) ([5]; 80 mg BID, 7 days, n = 8): 1 (13%) | tolerability ([5]; 80 mg and 120 mg BID, 7 days): well tolerated with no severe adverse effects reported | Abdominal Pain, AE, n (%) ([5]; 120 mg BID, 7 days, n = 8): 1 (13%) | Dizziness, AE, n (%) ([5]; 120 mg BID, 7 days, n = 8): 6 (75%) | Headache, AE, n (%) ([5]; 120 mg BID, 7 days, n = 8): 7 (88%) | Loose stools, AE, n (%) ([5]; 120 mg BID, 7 days, n = 8): 1 (13%) | Nausea, AE, n (%) ([5]; 120 mg BID, 7 days, n = 8): 2 (25%) | Parasthesia, AE, n (%) ([5]; 120 mg BID, 7 days, n = 8): 2 (25%) | Pharyngitis, AE, n (%) ([5]; 120 mg BID, 7 days, n = 8): 1 (13%) | Xerosis, AE, n (%) ([5]; 120 mg BID, 7 days, n = 8): 5 (63%) | neutrophils, laboratory change ([5]; MAD cohort, maximum effect Day 2 to Day 5): dose dependent reduction in neutrophils | character of TEAEs ([5]; MAD cohorts 10-50 mg BID): mild, transient, and resolved without sequelae | deaths, serious adverse events ([5]; MAD cohorts 10-50 mg BID): no deaths or SAEs | subjects with TEAEs considered related to the study drug ([5]; MAD cohorts 10-50 mg BID, 9 of 24): 38% | subjects reporting TEAEs ([5]; MAD cohorts 10-50 mg BID, 12 of 24): 50% | vital signs, electrocardiograms, clinical laboratory values ([5]; SAD and MAD cohorts): No clinically significant findings | character of TEAEs ([5]; SAD cohorts): mild, transient, and resolved without sequelae | deaths, serious adverse events, discontinuations ([5]; SAD cohorts): No deaths or serious adverse events (SAEs) | subjects with TEAEs considered related to the study drug ([5]; SAD cohorts, 4 of 24): 17% | subjects reporting TEAEs ([5]; SAD cohorts, 7 of 24): 29% | constipation, subjects with adverse event [5, 6]: 6.3% | upper respiratory tract infection, subjects with adverse event [5, 6]: 6.3% | dizziness, subjects with adverse event ([5]; all ATI-450 SAD and MAD cohorts, 6/48): 12.5% | Abdominal pain, treatment-emergent adverse event, n subjects [5, 7]: 2 | Constipation, treatment-emergent adverse event, n subjects [5, 7]: 3 | Dizziness, treatment-emergent adverse event, n subjects [5, 7]: 6 | Headache, treatment-emergent adverse event, n subjects [5, 7]: 10 | Nausea, treatment-emergent adverse event, n subjects [5, 7]: 2 | Upper respiratory tract infection, treatment-emergent adverse event, n subjects [5, 7]: 3 | Vomiting, treatment-emergent adverse event, n subjects [5, 7]: 0 | subjects with TEAEs considered related to the study drug ([5]; single dose 10 mg cohort): 0 subjects | subjects with TEAEs considered related to the study drug ([5]; single dose 30 mg cohort): 33% | subjects with TEAEs considered related to the study drug ([5]; single dose 50 mg cohort): 17% | subjects with TEAEs considered related to the study drug ([5]; single dose 100 mg cohort): 1 subject | safety and tolerability ([5]; single doses up to 100 mg, multiple doses up to 50 mg BID for 7 days): generally safe and well tolerated
